This assay concerns the target T1, CXCR7 (Homo sapiens, UniProt P25106).
T1 construct: expressed in transfected cells; host or cells: CHO cells (CHO-CXCR7), transgenes maintained with Hygromycin B and G418
Description: CXCR7 β-arrestin recruitment assay in CHO-CXCR7 cells (ProLink/EA β-galactosidase complementation), induced by human SDF-1a. It is filed as cell-based. The note with it: assay buffer, SDF-1a at EC50 concentration. The gist of the method: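 SDF-1α-induced β-arrestin recruitment was measured by enzyme-fragment complementation (ProLink-CXCR7 with β-arrestin-EA) in stable CHO cells. Agonist was dosed at its EC50, determined the same day, alongside serially diluted compound for 1.5 h at 37 °C. Fluorogenic galactoside substrate (0.4 mM, 30 min) was read at 360/465 nm, with IC50 from 3-parameter nonlinear regression.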
T1 sequence (P25106 whole entry): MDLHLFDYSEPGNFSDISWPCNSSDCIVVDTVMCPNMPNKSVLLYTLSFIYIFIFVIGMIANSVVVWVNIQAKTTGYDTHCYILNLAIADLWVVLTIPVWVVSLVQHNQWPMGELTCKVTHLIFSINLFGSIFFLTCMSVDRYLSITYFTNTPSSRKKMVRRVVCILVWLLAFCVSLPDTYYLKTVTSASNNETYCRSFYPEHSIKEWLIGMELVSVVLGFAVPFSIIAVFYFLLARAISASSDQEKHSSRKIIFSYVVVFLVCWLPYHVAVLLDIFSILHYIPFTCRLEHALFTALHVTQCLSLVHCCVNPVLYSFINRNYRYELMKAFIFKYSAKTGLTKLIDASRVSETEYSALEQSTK
Compound `CC(C)(NC(=O)CC1(NC(=O)c2cc(-c3ccc(F)cc3F)on2)CN(CC2CC2)C1)c1ccccc1` [Example 1.322] displayed an IC50 of 0.005 to 0.1 µM.

`C[C@@H](NC(=O)CC1(NC(=O)c2cc(-c3ccc(F)cc3F)on2)CN(CC2CC2)C1)c1ccccn1` [Example 1.323] registered a half-maximal inhibitory concentration (IC50) of 0.1 to 1 µM.

The compound `C[C@H](NC(=O)CC1(NC(=O)c2cc(-c3ccc(F)cc3F)on2)CN(CC2CC2)C1)c1ccccn1` [Example 1.324] registered an IC50 of 1 to 20 µM.

The compound `O=C(CC1(NC(=O)c2cc(-c3ccc(F)cc3F)on2)CN(C2CCCCC2)C1)NC1(c2ccccc2)CC1` [Example 1.325] yielded an IC50 of 0.005 to 0.1 µM.

Consider `CC(C)(NC(=O)CC1(NC(=O)c2cc(-c3ccc(F)cc3F)on2)CN(C2CCCCC2)C1)c1ccccn1` [Example 1.326], for which the half-maximal inhibitory concentration (IC50) was under 0.005 µM.

`CC(C)(NC(=O)CC1(NC(=O)c2cc(-c3ccc(F)cc3F)on2)CN(CC2CC2)C1)c1ccccn1` [Example 1.327] came in with a half-inhibitory concentration (IC50) of 0.005 to 0.1 µM.

In turn, `O=C(CC1(NC(=O)c2cc(-c3ccc(F)cc3F)on2)CN(C2CCOCC2)C1)NC1(c2ncccn2)CC1` [Example 1.328] registered an IC50 of 0.1 to 1 µM.

In the case of `O=C(CC1(NC(=O)c2cc(-c3ccc(F)cc3F)on2)CN(Cc2ccccc2)C1)NC1(c2ncccn2)CC1` [Example 1.329], the IC50 lay in the range of 0.1 to 1 µM.

Compound `CC(C)(C)CN1CC(CC(=O)NC2(c3ncccn3)CC2)(NC(=O)c2cc(-c3ccc(F)cc3F)on2)C1` [Example 1.330] yielded a half-inhibitory concentration (IC50) of 0.005 to 0.1 µM.

For `O=C(CC1(NC(=O)c2cc(-c3ccc(F)cc3F)on2)CN(C2CCCC2)C1)NC1(c2ncccn2)CC1` [Example 1.331], the IC50 was in the range of 0.005 to 0.1 µM.

In the case of `O=C(CC1(NC(=O)c2cc(-c3ccc(F)cc3F)on2)CN(C2CCCCC2)C1)NC1(c2ncccn2)CC1` [Example 1.332], the concentration for half-maximal inhibition (IC50) was in the range of 0.005 to 0.1 µM.

With `CC(C)N1CC(CC(=O)NC2(c3ncccn3)CC2)(NC(=O)c2cc(-c3ccc(F)cc3F)on2)C1` [Example 1.333], the IC50 is 0.1 to 1 µM.

Take `O=C(CC1(NC(=O)c2cc(-c3ccc(F)cc3F)on2)CN(CC2CC2)C1)NC1(c2ncccn2)CC1` [Example 1.334]: the IC50 lay in the range of 0.005 to 0.1 µM.

In turn, `Cc1cc(C(C)(C)NC(=O)CC2(NC(=O)c3nnc(-c4ccc(F)cc4F)s3)CN([C@H]3CC[C@](C)(O)CC3)C2)ccn1` [Example 1.335] yielded an IC50 of 0.005 to 0.1 µM.

On to `CC(C)(NC(=O)CC1(NC(=O)c2nnc(-c3ccc(F)cc3F)s2)CN([C@H]2CC[C@](C)(O)CC2)C1)c1cc(Cl)ccc1F` [Example 1.336], for which the IC50 was in the range of 0.005 to 0.1 µM.

Take `Cc1cc(C#N)cc(C(C)(C)NC(=O)CC2(NC(=O)c3nnc(-c4ccc(F)cc4F)s3)CN([C@H]3CC[C@](C)(O)CC3)C2)n1` [Example 1.337]: the IC50 was under 0.005 µM.

For `Cc1ccnc(C(C)(C)NC(=O)CC2(NC(=O)c3nnc(-c4ccc(F)cc4F)s3)CN([C@H]3CC[C@](C)(O)CC3)C2)c1` [Example 1.338], the IC50 lay in the range of 0.005 to 0.1 µM.

Regarding `COc1cc(C)nc(C(C)(C)NC(=O)CC2(NC(=O)c3cc(-c4ccc(F)cc4F)on3)CN([C@H]3CC[C@](C)(O)CC3)C2)c1` [Example 1.339], the IC50 lay in the range of 0.005 to 0.1 µM.

`Cc1c(C(=O)NC2(CC(=O)NC(C)(C)c3cccc(Cl)c3)CN(C3CCCCC3)C2)noc1-c1ccc(F)cc1F` [Example 1.340] returned an IC50 of 1 to 20 µM.

In the case of `Cc1cc(C)nc(C(C)(C)NC(=O)CC2(NC(=O)c3noc(-c4ccc(F)cc4F)c3C)CN(C3CCCCC3)C2)n1` [Example 1.341], the half-inhibitory concentration (IC50) fell in the range of 1 to 20 µM.

In the case of `COc1cc(OC)nc(C(C)(C)NC(=O)CC2(NC(=O)c3nnc(-c4ccc(F)cc4F)s3)CN([C@H]3CC[C@](C)(O)CC3)C2)c1` [Example 1.342], the IC50 lay in the range of 0.005 to 0.1 µM.

In turn, `Cc1cc(C(F)(F)F)cc(C(C)(C)NC(=O)CC2(NC(=O)c3cc(-c4ccc(F)cc4F)on3)CN([C@H]3CC[C@](C)(O)CC3)C2)n1` [Example 1.343] gave an IC50 of 0.005 to 0.1 µM.

Take `Cc1cc(C(C)C)cc(C(C)(C)NC(=O)CC2(NC(=O)c3cc(-c4ccc(F)cc4F)on3)CN([C@H]3CC[C@](C)(O)CC3)C2)n1` [Example 1.344]: the IC50 was in the range of 0.1 to 1 µM.

The compound `CC(C)(NC(=O)CC1(NC(=O)c2nnc(-c3ccc(F)cc3F)s2)CN([C@H]2CC[C@](C)(O)CC2)C1)c1cc(Cl)cc(C#N)c1` [Example 1.345] had an IC50 of 0.005 to 0.1 µM.

`COc1cc(C)cc(C(C)(C)NC(=O)CC2(NC(=O)c3nnc(-c4ccc(F)cc4F)s3)CN([C@H]3CC[C@](C)(O)CC3)C2)n1` [Example 1.346] had an IC50 of 0.005 to 0.1 µM.

With `Cc1cc(C(C)C)cc(C(C)(C)NC(=O)CC2(NC(=O)c3nnc(-c4ccc(F)cc4F)s3)CN([C@H]3CC[C@](C)(O)CC3)C2)n1` [Example 1.347], the concentration for half-maximal inhibition (IC50) was 0.1 to 1 µM.

As to `Cc1cc(Cl)cc(C(C)(C)NC(=O)CC2(NC(=O)c3nnc(-c4ccc(F)cc4F)s3)CN([C@H]3CC[C@](C)(O)CC3)C2)c1` [Example 1.348], the IC50 lay in the range of 0.005 to 0.1 µM.

The compound `Cc1cc(C(F)(F)F)cc(C(C)(C)NC(=O)CC2(NC(=O)c3nnc(-c4ccc(F)cc4F)s3)CN([C@H]3CC[C@](C)(O)CC3)C2)n1` [Example 1.349] showed an IC50 of 0.005 to 0.1 µM.

`Cc1cc(C2CC2)cc(C(C)(C)NC(=O)CC2(NC(=O)c3nnc(-c4ccc(F)cc4F)s3)CN([C@H]3CC[C@](C)(O)CC3)C2)n1` [Example 1.350] showed an IC50 of 0.005 to 0.1 µM.

In turn, `Cc1cc(C)nc(C(C)(C)NC(=O)CC2(NC(=O)c3cc(-c4ccc(F)cc4F)on3)CN(C3CCOCC3(C)C)C2)n1` (stereo not drawn) [Example 1.351] showed an IC50 of 0.1 to 1 µM.

For `Cc1cc(C#N)cc(C(C)(C)NC(=O)CC2(NC(=O)c3nnc(-c4ccc(F)cc4F)s3)CN([C@H]3CC[C@](C)(O)CC3)C2)n1` [Example 1.352], the IC50 lay in the range of 0.005 to 0.1 µM.

`Cc1cc(C)nc(C(C)(C)NC(=O)CC2(NC(=O)c3cc(-c4ccc(F)cc4F)on3)CN(C3CCOC3(C)C)C2)n1` (stereo not drawn) [Example 1.353] had an IC50 of 0.1 to 1 µM.

On to `Cc1cc(C)nc(C(C)(C)NC(=O)CC2(NC(=O)c3cc(-c4ccc(F)cc4F)on3)CN(C3CC(C)OC(C)C3)C2)n1` (stereo not drawn) [Example 1.354], for which the IC50 fell in the range of 0.1 to 1 µM.

With `Cc1cc(C)nc(C(C)(C)NC(=O)CC2(NC(=O)c3cc(-c4ccc(F)cc4F)on3)CN(C3CC(C)(C)OC(C)(C)C3)C2)n1` [Example 1.355], the IC50 is under 0.005 µM.

Turning to `C[C@]1(O)CC[C@H](N2CC(CC(=O)NC3(c4ncccn4)CC3)(NC(=O)c3cc(-c4ccc(F)cc4F)on3)C2)CC1` [Example 1.356], the IC50 lay in the range of 0.005 to 0.1 µM.

Consider `CC1(C)CC(N2CC(CC(=O)NC(C)(C)c3cccc(Cl)c3)(NC(=O)c3cc(-c4ccc(F)cc4F)on3)C2)CCO1` (stereo not drawn) [Example 1.357], for which the IC50 fell in the range of 0.005 to 0.1 µM.

The compound `Cc1cc(Cl)cc(C(C)(C)NC(=O)CC2(NC(=O)c3cc(-c4ccc(F)cc4F)on3)CN(C3CCOC(C)(C)C3)C2)n1` (stereo not drawn) [Example 1.358] displayed an IC50 of under 0.005 µM.

`Cc1cc(C)nc(C(C)(C)NC(=O)CC2(NC(=O)c3cc(-c4ccc(F)cc4F)on3)CN(C3CCOC(C)(C)C3)C2)n1` (stereo not drawn) [Example 1.359] had an IC50 of 0.005 to 0.1 µM.

Compound `CC(C)(NC(=O)CC1(NC(=O)c2cc(-c3ccc(F)cc3F)on2)CN(C2(C)CCCCC2)C1)c1cccc(Cl)c1` [Example 1.360] came in with an IC50 of under 0.005 µM.

(Values after US12448373B2, “Azetidinyl-acetamides as CXCR7 inhibitors” (CHEMOCENTRYX, INC., priority 2021, dated 2025).)
